From US20190160035A1, “METHOD OF TREATMENT” (QBIOTICS LIMITED, priority 2016, published 2019)

What was measured:
[1] = Example 1: safety evaluation (clinical parameters, adverse events graded by VCOG-CTCAE); type: in vivo, Canis lupus familiaris (dog)
Protocol: Clinical parameters such as bodyweight (kg), rectal temperature (° C.), heart rate (HR) per minute, respiratory rate (RR) per minute, general demeanor and body function (e.g. eating, drinking, urine and stools), were collected on each enrolled dog at screening, immediately pre-treatment, at approximately 2-4 and 24 hours post-treatment, and at 7(±2), 14(±2) and 28(±2) days post treatment. An adverse event (AE) was defined as any unfavorable and unintended sign, symptom, or disease temporally associated with the use of the drug, whether or not related to the product (VCOG-CTCAE, 2011). AE were graded according to the VCOG-CTCAE classification which is a descriptive severity scale (grade system) used for AE reporting in dogs treated with antineoplastic therapy.
With the exception of swelling and pain, local tissue pathology as a result of treatment (i.e. tumor necrosis) was not considered an adverse event (AE). AEs such as rapid breathing, mild tachycardia and post treatment lethargy are generally considered to be the result of the powerful local inflammatory response and systemic activation of the dog's immune response during the treatment response phase. In this study, 44 AEs were identified in 15 event types. The majority of identified AEs (28 out of 44; […]) were represented by the ‘mild’ VCOG-CTCAE classification Grade 1 with no intervention required. With the exception of dog C03-T-07, a level of minimal medical intervention was required in only 3 cases. […] With the exception of dog C03-T-07, all reported AEs were transient in nature—resolved by 24-48 h post treatment in the majority of cases.

[2] = Example 5: adverse events (VCOG-CTCAE classification); type: in vivo, Canis lupus familiaris (dog)
Source text: With the exception of swelling and pain, local tissue pathology as a result of treatment (i.e. tumor necrosis) was not considered an adverse event (AE). AEs reported such as transitory post treatment lethargy, listlessness and apathy are generally considered to be the result of the powerful local inflammatory response and systemic activation of the dog's immune response during the treatment response phase. In this study, 72 AEs were identified in 14 event types (see Table 28). The majority of identified AEs (59 out of 72; 82%) were represented by the ‘mild’ VCOG-CTCAE classification Grade 1 with no intervention required. With the exception of dogs C05-T-04 and C05-T-17 (described previously), a level of minimal medical intervention was required in only 3 cases. Dog C05-T-05 was medicated with metronidazole for transient diarrhea reported on Day 14 post-treatment; dog C05-T-07 was medicated with an antibiotic course (amoxicillin/clavulanic acid) for skin pustulation on the ventral abdomen (distant to drug injection site); and dog C05-T-09 was prescribed a prophylactic antibiotic course (cephalexin) on Day 21 on observation by the referral practice of ‘inflamed and angry’ lesion edges and having an impression smear of wound surface with ‘neutrophils and round cells (without granules)’. These findings for dog C05-T-09 of neutrophil presence is perhaps not unexpected due to the mechanism of action of the drug. The dog was reported having normal demeanour at this time. With the exception of the limb swelling in dog C05-T-17 (degranulation reaction), all reported AEs were transient in nature—resolved by 24-48 h post treatment.

With C/C=C(\C)C(=O)O[C@@H]1[C@@H](C)[C@@]2(O)[C@H]([C@@H]3C(C)(C)[C@]13OC(=O)[C@@H](C)CC)[C@@H]1O[C@]1(CO)[C@@H](O)[C@]1(O)C(=O)C(C)=C[C@H]12 [Compound 1, 12-tigloyl-13-(2-methylbutanoyl)-6,7-epoxy-4,5,9,12,13,20-hexahydroxy-1-tigliaen-3-one] the “Number of AEs identified” value ([1]; 12 dogs, 15 event types) was 44, the “Share of AEs of VCOG-CTCAE Grade 1” value ([1]; 28 out of 44) was 61.3% and the “Dogs that died during the course of the study” value ([1]; dog C03-T-07, Day 4, veterinarian did not believe Compound 1 directly contributed) was 1. For the same compound, the “Time by which reported AEs resolved post treatment” value ([1]; majority of cases, except dog C03-T-07) was 24 to 48 h, the “Number of AEs of ‘mild’ VCOG-CTCAE Grade 1 (no intervention required)” value ([1]; out of 44 AEs) was 28 and the “Cases requiring minimal medical intervention” value ([1]; with the exception of dog C03-T-07) was 3. For the same compound, the “Number of AEs identified” value ([2]; 18 cases, 14 event types) was 72, the “Share of AEs of VCOG-CTCAE Grade 1” value ([2]; 59 out of 72) was 82% and the “Apathy: VCOG-CTCAE Grade classification (no. of animals)” value ([2]; Grade 1) was 1 (2). For the same compound, the “Bruising at treatment site: VCOG-CTCAE Grade classification (no. of animals)” value ([2]; Grade 1) was 1 (13), the “Inappetance: VCOG-CTCAE Grade classification (no. of animals)” value ([2]; Grade 1) was 1 (6) and the “Lethargy: VCOG-CTCAE Grade classification (no. of animals)” value ([2]; Grade 1) was 1 (5). For the same compound, the “Listless: VCOG-CTCAE Grade classification (no. of animals)” value ([2]; Grade 1) was 1 (2), the “Local swelling at treatment site: VCOG-CTCAE Grade classification (no. of animals)” value ([2]; Grade 1) was 1 (17) and the “Pain associated with treatment site: VCOG-CTCAE Grade classification (no. of animals)” value ([2]; Grade 1) was 1 (12). For the same compound, the “Polydipsia: VCOG-CTCAE Grade classification (no. of animals)” value ([2]; Grade 1) was 1 (1), the “Ringworm: VCOG-CTCAE Grade classification (no. of animals)” value ([2]; Grade 1) was 1 (1) and the “Transient Diarrhoea: VCOG-CTCAE Grade classification (no. of animals)” value ([2]; Grade 1) was 1 (1). The “Vomiting: VCOG-CTCAE Grade classification (no. of animals)” value ([2]; Grade 1) was 1 (2), the “Bruising at treatment site: VCOG-CTCAE Grade classification (no. of animals)” value ([2]; Grade 2) was 2 (1) and the “Cranial abdominal pain: VCOG-CTCAE Grade classification (no. of animals)” value ([2]; Grade 2) was 2 (1). The “Inappetance: VCOG-CTCAE Grade classification (no. of animals)” value ([2]; Grade 2) was 2 (1), the “Injection site lesion antimicrobial prophylaxis: VCOG-CTCAE Grade classification (no. of animals)” value ([2]; Grade 2) was 2 (1) and the “Lethargy: VCOG-CTCAE Grade classification (no. of animals)” value ([2]; Grade 2) was 2 (1). For the same compound, the “Local swelling at treatment site: VCOG-CTCAE Grade classification (no. of animals)” value ([2]; Grade 2) was 2 (1), the “Pain associated with treatment site: VCOG-CTCAE Grade classification (no. of animals)” value ([2]; Grade 2) was 2 (1) and the “Skin pustulation: VCOG-CTCAE Grade classification (no. of animals)” value ([2]; Grade 2) was 2 (1). For the same compound, the “Transient Diarrhoea: VCOG-CTCAE Grade classification (no. of animals)” value ([2]; Grade 2) was 2 (1), the “Vomiting: VCOG-CTCAE Grade classification (no. of animals)” value ([2]; Grade 2) was 2 (1) and the “Apathy: Incidence (%)” value ([2]; all dogs (18 cases)) was 11.1%. The “Apathy: No. of dogs experiencing this event” value ([2]; all dogs (18 cases)) was 2, the “Bruising at treatment site: Incidence (%)” value ([2]; all dogs (18 cases)) was 77.8% and the “Bruising at treatment site: No. of dogs experiencing this event” value ([2]; all dogs (18 cases)) was 14. For the same compound, the “Cranial abdominal pain: Incidence (%)” value ([2]; all dogs (18 cases)) was 5.6%, the “Cranial abdominal pain: No. of dogs experiencing this event” value ([2]; all dogs (18 cases)) was 1 and the “Inappetance: Incidence (%)” value ([2]; all dogs (18 cases)) was 38.9%. For the same compound, the “Inappetance: No. of dogs experiencing this event” value ([2]; all dogs (18 cases)) was 7, the “Injection site lesion antimicrobial prophylaxis: Incidence (%)” value ([2]; all dogs (18 cases)) was 5.6% and the “Injection site lesion antimicrobial prophylaxis: No. of dogs experiencing this event” value ([2]; all dogs (18 cases)) was 1. The “Lethargy: Incidence (%)” value ([2]; all dogs (18 cases)) was 33.3%, the “Lethargy: No. of dogs experiencing this event” value ([2]; all dogs (18 cases)) was 6 and the “Listless: Incidence (%)” value ([2]; all dogs (18 cases)) was 11.1%. The “Listless: No. of dogs experiencing this event” value ([2]; all dogs (18 cases)) was 2, the “Local swelling at treatment site: Incidence (%)” value ([2]; all dogs (18 cases)) was 100.0% and the “Local swelling at treatment site: No. of dogs experiencing this event” value ([2]; all dogs (18 cases)) was 18. For the same compound, the “Pain associated with treatment site: Incidence (%)” value ([2]; all dogs (18 cases)) was 72.2%, the “Pain associated with treatment site: No. of dogs experiencing this event” value ([2]; all dogs (18 cases)) was 13 and the “Polydipsia: Incidence (%)” value ([2]; all dogs (18 cases)) was 5.6%. For the same compound, the “Polydipsia: No. of dogs experiencing this event” value ([2]; all dogs (18 cases)) was 1, the “Ringworm: Incidence (%)” value ([2]; all dogs (18 cases)) was 5.6% and the “Ringworm: No. of dogs experiencing this event” value ([2]; all dogs (18 cases)) was 1. For the same compound, the “Skin pustulation: Incidence (%)” value ([2]; all dogs (18 cases)) was 5.6%, the “Skin pustulation: No. of dogs experiencing this event” value ([2]; all dogs (18 cases)) was 1 and the “Transient Diarrhoea: Incidence (%)” value ([2]; all dogs (18 cases)) was 11.1%. The “Transient Diarrhoea: No. of dogs experiencing this event” value ([2]; all dogs (18 cases)) was 2, the “Vomiting: Incidence (%)” value ([2]; all dogs (18 cases)) was 16.7% and the “Vomiting: No. of dogs experiencing this event” value ([2]; all dogs (18 cases)) was 3. The “Time by which reported AEs resolved post treatment” value ([2]; except limb swelling in dog C05-T-17) was 24 to 48 h, the “Number of AEs of ‘mild’ VCOG-CTCAE Grade 1 (no intervention required)” value ([2]; out of 72 AEs) was 59 and the “Cases requiring minimal medical intervention” value ([2]; with the exception of dogs C05-T-04 and C05-T-17) was 3.
